Source: US20260085082A1, “KDM1A INHIBITORS FOR THE TREATMENT OF DISEASE” (Imago Biosciences, Inc., priority 2022, published 2026)
pIC50: −log10 of the molar value. Read-outs that look alike come from different tables or passages of the source.

What was measured:
MV4;11 cells = experiment: Cell Titer-Glo Luminescent Cell Viability Assay, cell growth inhibition against MV4;11 cells; format: cell-based
Description: Cell growth inhibition against MV4;11 cells was confirmed for the synthetic compounds. The Cell Titer-Glo Luminescent Cell Viability Assay (Promega, USA) was used to determine the number of viable cells in culture based on quantitation of the ATP present, which signals the presence of metabolically active cells. This assay was run in a 96-well plate format arrayed in a 10-point dose curve, ranging from 0 to 50 μM with 4-fold dilutions for each compound. Cells are seeded on Day 0 at 3750 cells per well. At Day 5, a portion of each well is assayed for viability according to the Cell Titer-Glo protocol. Briefly, cells/plates were centrifuged at 1100×g for 5 minutes. 100 μL of media was removed from each well and replaced with 100 μL of CellTiter-Glo. The plates were shaken at room temperature for 10 minutes and measured on a luminescence plate reader. Another portion of each well from the Day 5 plate is used to seed a new 96 plate containing fresh compound and media set up in the equivalent 10-point dose curve array in order to continue the cell growth inhibition assay for another 5 days. A final timepoint is collected at Day 10 using the Cell Titer-Glo protocol. Luminescence was detected on an EnVision® Multilabel Plate Reader (Perkin Elmer, Waltham, Mass.) and IC50 determination was made using Graph Pad Prism software.

LSD1 = LSD1 (Homo sapiens, UniProt O60341); experiment: LSD1 10-dose IC50 fluorescence coupling enzyme assay (HRP/Amplex Red, resorufin); format: biochemical; settings: 10 M histone H3(1-21)K4me2 peptide substrate; 3-fold serial dilution in duplicate starting at 100 μM
Description: Compounds were tested in a 10-dose IC50 mode fluorescence coupling enzyme assay with 3-fold serial dilution in duplicate starting at 100 μM. The production of FAD-dependent H2O2 as a result of demethylase activity of LSD1 on […] histone H3(1-21)K4me2 peptide substrate was measured by coupling with HRP and Amplex Red to yield resorufin (fluorescence measured at Ex/Em=535/590 nm on EnVision, Perkin Elmer).

[1] = Homo sapiens, MV4-11, 120 h, MV4;11 cells, Day 5, 10-point dose curve 0 to 50 μM, read-out: Cell Titer Glo IC50 (5 d)
[2] = Homo sapiens, MV4-11, MV4;11 cells, Day 10 (re-seeded at Day 5 with fresh compound), 10-point dose curve 0 to 50 μM, read-out: Cell Titer Glo IC50 (10 d)

SMILES	pIC50 (MV4;11 cells; MV4;11 cells, Day 5, 10-point dose curve 0 to 50 μM, 2,2,2-trifluoroacetate, read-out: Cell Titer Glo IC50 (5 d))	pIC50 (LSD1)	pIC50 (MV4;11 cells; [1])	pIC50 (MV4;11 cells; MV4;11 cells, Day 10 (re-seeded at Day 5 with fresh compound), 10-point dose curve 0 to 50 μM, read-out: Cell Titer Glo IC50 (10 d))	pIC50 (MV4;11 cells; [2])
COc1ccc(-n2nc(C(=O)NC3CCCNC3)cc2-c2ccc(C#N)cc2)cc1 (stereo not drawn) [Example 3, 5-(4-Cyanophenyl)-1-(4-methoxyphenyl)-N-(piperidin-3-yl)-1H-pyrazole-3-carboxamide 2,2,2-trifluoroacetate]		5.00 to 6.00	5.00 to 6.00		
COc1ccc(-n2nc(-c3ccc(C#N)cc3)cc2C(=O)NC2CCCNC2)cc1 (stereo not drawn) [Example 5, 3-(4-Cyanophenyl)-1-(4-methoxyphenyl)-N-(piperidin-3-yl)-1H-pyrazole-5-carboxamide 2,2,2-trifluoroacetate]		5.00 to 6.00	< 5.00		
Cc1ccc(-n2nc(C(=O)NC3CCNC3)cc2-c2ccc(C#N)c(F)c2)cc1 (stereo not drawn) [Example 10, 5-(4-Cyano-3-fluorophenyl)-N-(pyrrolidin-3-yl)-1-(p-tolyl)-1H-pyrazole-3-carboxamide]		6.00 to 6.30	5.00 to 6.00		
Cc1ccc(-n2nc(-c3ccc(C#N)c(F)c3)cc2C(=O)N2CCC(N)CC2)cc1 [Example 13, 4-(5-(4-Aminopiperidine-1-carbonyl)-1-(p-tolyl)-1H-pyrazol-3-yl)-2-fluorobenzonitrile]		5.00 to 6.00	5.00 to 6.00		
Cc1ccc(-n2nc(-c3ccc(C#N)c(F)c3)cc2C(=O)NC2CCNC2)cc1 (stereo not drawn) [Example 15, 3-(4-Cyano-3-fluorophenyl)-N-(pyrrolidin-3-yl)-1-(p-tolyl)-1H-pyrazole-5-carboxamide]		6.00 to 6.30	5.00 to 6.00		
COc1ccc(-n2nc(C(=O)N3CCC[C@H](N)C3)cc2-c2ccc(C#N)c(F)c2)cc1 [Example 19, (S)-4-(3-(3-Aminopiperidine-1-carbonyl)-1-(4-methoxyphenyl)-1H-pyrazol-5-yl)-2-fluorobenzonitrile]		> 6.30	> 6.30		> 6.30
COc1ccc(-n2nc(C(=O)NC3CCCC(N)C3)cc2-c2ccc(C#N)c(F)c2)cc1 (stereo not drawn) [Example 20, N-(3-aminocyclohexyl)-5-(4-cyano-3-fluorophenyl)-1-(4-methoxyphenyl)-1H-pyrazole-3-carboxamide 2,2,2-trifluoroacetate]		5.00 to 6.00	5.00 to 6.00		
COc1ccc(-n2nc(C(=O)NC3CCNC3)cc2-c2ccc(C#N)c(F)c2)cc1 (stereo not drawn) [Example 21, 5-(4-Cyano-3-fluorophenyl)-1-(4-methoxyphenyl)-N-(pyrrolidin-3-yl)-1H-pyrazole-3-carboxamide]		6.00 to 6.30	5.00 to 6.00		
COc1ccc(-n2nc(C(=O)N[C@H]3CCC[C@@H](N)C3)cc2-c2ccc(C#N)c(F)c2)cc1 [Example 22, N-((1S,3R)-3-aminocyclohexyl)-5-(4-cyano-3-fluorophenyl)-1-(4-methoxyphenyl)-1H-pyrazole-3-carboxamide]		6.00 to 6.30	5.00 to 6.00		
COc1ccc(-n2nc(C(=O)N3CCC(NC(=N)N)CC3)cc2-c2ccc(C#N)c(F)c2)cc1 [Example 30, 1-(1-(5-(4-Cyano-3-fluorophenyl)-1-(4-methoxyphenyl)-1H-pyrazole-3-carbonyl)piperidin-4-yl)guanidine 2,2,2-trifluoroacetate]		5.00 to 6.00			
N#Cc1ccc(-c2cc(C(=O)N3CCC[C@@H](N)C3)nn2-c2ccc(N3CCNC(=O)C3)cc2)cc1F [Example 49, (R)-4-(3-(3-aminopiperidine-1-carbonyl)-1-(4-(3-oxopiperazin-1-yl)phenyl)-1H-pyrazol-5-yl)-2-fluorobenzonitrile]		> 6.30			
COc1cc(N2CCNC(=O)C2)ccc1-n1nc(C(=O)N2CCC[C@@H](N)C2)cc1-c1ccc(C#N)c(F)c1 [Example 51, (R)-4-(3-(3-aminopiperidine-1-carbonyl)-1-(2-methoxy-4-(3-oxopiperazin-1-yl)phenyl)-1H-pyrazol-5-yl)-2-fluorobenzonitrile]		> 6.30			
CN1CCN(c2ccc(-n3nc(C(=O)N4CCC[C@@H](N)C4)cc3-c3ccc(C#N)c(F)c3)c(F)c2)CC1 [Example 67, (R)-4-(3-(3-aminopiperidine-1-carbonyl)-1-(2-fluoro-4-(4-methylpiperazin-1-yl)phenyl)-1H-pyrazol-5-yl)-2-fluorobenzonitrile]		> 6.30			
CN1CCN(c2ccc(-n3nc(-c4ccc(C#N)c(F)c4)cc3C(=O)N3CCC[C@@H](N)C3)cc2F)CC1 [Example 80, (R)-4-(5-(3-aminopiperidine-1-carbonyl)-1-(3-fluoro-4-(4-methylpiperazin-1-yl)phenyl)-1H-pyrazol-3-yl)-2-fluorobenzonitrile 2,2,2-trifluoroacetate]		> 6.30			

Further lines, with some results ahead:

pIC50 (MV4;11 cells; MV4;11 cells, Day 5, 10-point dose curve 0 to 50 μM, 2,2,2-trifluoroacetate, read-out: Cell Titer Glo IC50 (5 d))	pIC50 (LSD1)	pIC50 (MV4;11 cells; [1])	SMILES	pIC50 (MV4;11 cells; MV4;11 cells, Day 10 (re-seeded at Day 5 with fresh compound), 10-point dose curve 0 to 50 μM, read-out: Cell Titer Glo IC50 (10 d))	pIC50 (MV4;11 cells; [2])
> 6.30	> 6.30		COC1CCN(c2ccc(-n3nc(C(=O)N4CCCC(N)C4)cc3-c3ccc(C#N)c(F)c3)cc2)CC1 (stereo in doubt) [Example 64, (R)-4-(3-(3-aminopiperidine-1-carbonyl)-1-(4-(4-methoxypiperidin-1-yl)phenyl)-1H-pyrazol-5-yl)-2-fluorobenzonitrile 2,2,2-trifluoroacetate]	> 6.30	
	> 6.30	6.00 to 6.30	COc1ccc(-n2nc(C(=O)N3CCCC(N)C3)cc2-c2ccc(C#N)cc2)cc1 (stereo not drawn) [Example 2, 4-(3-(3-Aminopiperidine-1-carbonyl)-1-(4-methoxyphenyl)-1H-pyrazol-5-yl)benzonitrile]		
	> 6.30	5.00 to 6.00	COc1ccc(-n2nc(-c3ccc(C#N)cc3)cc2C(=O)N2CCCC(N)C2)cc1 (stereo not drawn) [Example 4, 4-(5-(3-Aminopiperidine-1-carbonyl)-1-(4-methoxyphenyl)-1H-pyrazol-3-yl)benzonitrile]		
	> 6.30	> 6.30	Cc1ccc(-n2nc(C(=O)N3CCCC(N)C3)cc2-c2ccc(C#N)c(F)c2)cc1 (stereo not drawn) [Example 6, 4-(3-(3-Aminopiperidine-1-carbonyl)-1-(p-tolyl)-1H-pyrazol-5-yl)-2-fluorobenzonitrile]		
	> 6.30	5.00 to 6.00	Cc1ccc(-n2nc(C(=O)N3CCCC(CN)C3)cc2-c2ccc(C#N)c(F)c2)cc1 (stereo not drawn) [Example 7, 4-(3-(3-(Aminomethyl)piperidine-1-carbonyl)-1-(p-tolyl)-1H-pyrazol-5-yl)-2-fluorobenzonitrile]		
	> 6.30	< 5.00	Cc1ccc(-n2nc(C(=O)N3CCC(CN)CC3)cc2-c2ccc(C#N)c(F)c2)cc1 [Example 8, 4-(3-(4-(Aminomethyl)piperidine-1-carbonyl)-1-(p-tolyl)-1H-pyrazol-5-yl)-2-fluorobenzonitrile]		
	> 6.30	5.00 to 6.00	Cc1ccc(-n2nc(C(=O)N3CCC(N)CC3)cc2-c2ccc(C#N)c(F)c2)cc1 [Example 9, 4-(3-(4-Aminopiperidine-1-carbonyl)-1-(p-tolyl)-1H-pyrazol-5-yl)-2-fluorobenzonitrile]		
	> 6.30	> 6.30	Cc1ccc(-n2nc(C(=O)N3CCC[C@@H](N)C3)cc2-c2ccc(C#N)c(F)c2)cc1 [Example 11, (R)-4-(3-(3-Aminopiperidine-1-carbonyl)-1-(p-tolyl)-1H-pyrazol-5-yl)-2-fluorobenzonitrile]		> 6.30
	> 6.30	> 6.30	Cc1ccc(-n2nc(C(=O)N3CCC[C@H](N)C3)cc2-c2ccc(C#N)c(F)c2)cc1 [Example 12, (S)-4-(3-(3-Aminopiperidine-1-carbonyl)-1-(p-tolyl)-1H-pyrazol-5-yl)-2-fluorobenzonitrile]		> 6.30
	> 6.30	5.00 to 6.00	Cc1ccc(-n2nc(-c3ccc(C#N)c(F)c3)cc2C(=O)N2CCCC(N)C2)cc1 (stereo not drawn) [Example 14, 4-(5-(3-Aminopiperidine-1-carbonyl)-1-(p-tolyl)-1H-pyrazol-3-yl)-2-fluorobenzonitrile]		
	> 6.30	> 6.30	COc1ccc(-n2nc(C(=O)N3CCCC(N)C3)cc2-c2ccc(C#N)c(F)c2)cc1 (stereo not drawn) [Example 16, 4-(3-(3-Aminopiperidine-1-carbonyl)-1-(4-methoxyphenyl)-1H-pyrazol-5-yl)-2-fluorobenzonitrile]		
	> 6.30	5.00 to 6.00	COc1ccc(-n2nc(-c3ccc(C#N)c(F)c3)cc2C(=O)N2CCCC(N)C2)cc1 (stereo not drawn) [Example 17, 4-(5-(3-Aminopiperidine-1-carbonyl)-1-(4-methoxyphenyl)-1H-pyrazol-3-yl)-2-fluorobenzonitrile]		
	> 6.30	> 6.30	COc1ccc(-n2nc(C(=O)N3CCC[C@@H](N)C3)cc2-c2ccc(C#N)c(F)c2)cc1 [Example 18, (R)-4-(3-(3-Aminopiperidine-1-carbonyl)-1-(4-methoxyphenyl)-1H-pyrazol-5-yl)-2-fluorobenzonitrile]		> 6.30
